According to US20240109881A1, “Heteroaryl Compounds as Ligand Directed Degraders of IRAK4” (Bristol-Myers Squibb Company, priority 2022, published 2024):

Biological target: T1, IRAK4 (Homo sapiens, UniProt Q9NWZ3)
T1 construct: endogenous in cells; host or cells: THP-1 cells
T1 sequence (Q9NWZ3 1-460): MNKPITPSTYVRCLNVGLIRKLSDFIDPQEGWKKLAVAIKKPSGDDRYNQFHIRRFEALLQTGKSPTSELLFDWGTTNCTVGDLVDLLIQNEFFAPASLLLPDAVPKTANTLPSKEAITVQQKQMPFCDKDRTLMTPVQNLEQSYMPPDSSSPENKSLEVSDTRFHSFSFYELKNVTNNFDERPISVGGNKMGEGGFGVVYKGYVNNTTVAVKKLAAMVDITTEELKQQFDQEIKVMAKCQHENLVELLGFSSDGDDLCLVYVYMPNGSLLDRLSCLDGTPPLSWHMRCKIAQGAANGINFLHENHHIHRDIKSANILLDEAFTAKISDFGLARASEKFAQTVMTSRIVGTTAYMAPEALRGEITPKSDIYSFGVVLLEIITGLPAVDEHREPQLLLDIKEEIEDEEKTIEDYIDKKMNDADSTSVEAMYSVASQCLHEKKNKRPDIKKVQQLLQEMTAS
Experiment: LVL THP1 HTRF (THP1 Homogeneous Time Resolved Fluorescence)
Assay type: cell-based
Details: THP1 cells, 18 h incubation with compound; for DC50: read-out: LVL THP1 HTRF EC50
Description: Cell culture media was prepared in a tissue culture hood in a sterile environment by adding 10% FBS and 1% Penicillin Streptomycin to 500 mL no phenol red RPMI 1640 media. The media was filtered through a Nalgene Bottle Top Filter and stored at 4° C.
For Homogenous Time Resolved Fluorescence (HTRF) assays, a Cisbio HTRF kit was used, which included: Lysis Buffer #1 4×, Blocking Reagent #3 100×, 20× Antibody 1 (Anti-IRAK4 d2), 20× Antibody 2 (Anti-IRAK4 k), and Detection Buffer.
The THP1 plates were prepared by the following method. For each dosing plate, a duplicate for CTG assay was prepared. Two THP-1 T-175 flasks could be used to plate one 384 well plate. The cells were collected from two T-175 flasks into 200 mL centrifuge tubes and spun down at 1200 rpm for 10 min. The supernatant was removed completely and cells were resuspended in 7.5 mL cell culture media. To 5 μL of the cell suspension was added 25 μL of media and 30 μL of Trypan Blue stain. The cells were counted using countess (automated cell counter, Thermo Fisher Scientific) twice and the viability and live cell count was recorded. The actual cell count was […] the live cell count. Based on the count, a cell suspension was prepared in colorless RPMI media for a final concentration of 7.5e6 cells/mL. Using Standard cassette multidrop combi, 20 μL of the 7.5e6 cells/mL cell stock was added to entire 384 well plate but for top half of column 1 (negative control) The multidrop combi was always primed to achieve a steady flow and washed after use with 20 mL de-ionized water followed by 20 mL alcohol. The cells were incubated in 5% CO2 incubator at 37° C.
Dosing was conducted using the following method. To dose assay plates and CTG plate was added 20 nL of compounds in DMSO using Echo (Beckman Coulter), and the plates were incubated at 37° C. for 18 h. The compound plates were spun at 1200 rpm for 1 min before dosing. The compound plate was sealed and properly stored during incubation.
After dosing, an HTRF assay was conducted using the following method. The treatment plates (IRAK4_HTRF) were centrifuged at 600 g for 10 min. Using CyBio Felix, Automated liquid handler (Analytikjena), 13 μL cell culture media was removed. To all columns, 7.5 μL lysis buffer was added, and an additional 7.5 μL of lysis buffer was added to column 1(top half, negative control). The plate was incubated on a shaker at room temperature for 2 h. The plate was spun down at 600 g for 5 min. Custom 20×IRAK4 Antibody obtained from CISBIO Anti-IRAK4-d2 (acceptor Ab) and Anti-IRAK4-K (donor Ab) were diluted to 1× antibody mix Using a multichannel repeater, 4 μL of 1× antibody mix was added to each wellThe plate was spun down at 600 g for 5 min and incubated in the dark at room temperature for 18 h The next day (after 18 hrs), HTRF assay plate was spun down at 600 g for 5 min and read at 665/615 nm using a Envision plate reader.

Row | SMILES | LVL THP1 HTRF YMIN | DC50
1 | C[C@H](C#N)Nc1cc(-n2ncc3cc(C#N)cnc32)ncc1-n1cc([C@H]2CC[C@H](CCN3CCN(c4ccc([C@@]5(C)CCC(=O)NC5=O)nc4)[C@@H](C)C3)CC2)nn1 (single isomer, unassigned) [P-289] | 7.7% | 0.0113 µM
2 | C[C@H](C#N)Nc1cc(-n2ncc3cc(C#N)cnc32)ncc1-n1cc([C@H]2CC[C@H](CCN3CCN(c4ccc([C@@]5(C)CCC(=O)NC5=O)nc4)[C@@H](C)C3)CC2)nn1 (single isomer, unassigned) [P-290] | 33.6% | 0.253 µM
3 | C[C@H](C#N)Nc1cc(-n2ncc3cc(C#N)cnc32)ncc1-n1cc([C@H]2CC[C@](O)(CCN3CCN(c4ccc([C@@]5(C)CCC(=O)NC5=O)cc4)[C@@H](C)C3)CC2)nn1 (single isomer, unassigned) [P-291] | −4.4% | 0.0577 µM
4 | C[C@H](C#N)Nc1cc(-n2ncc3cc(C#N)cnc32)ncc1-n1cc([C@H]2CC[C@](O)(CCN3CCN(c4ccc([C@@]5(C)CCC(=O)NC5=O)cc4)CC3)CC2)nn1 (single isomer, unassigned) [P-292] | 7.2% | 0.032 µM
5 | C[C@H](C#N)Nc1cc(-n2ncc3cc(C#N)cnc32)ncc1-n1cc([C@H]2CC[C@](O)(CCN3CCN(c4ccc([C@@]5(C)CCC(=O)NC5=O)cn4)CC3)CC2)nn1 (single isomer, unassigned) [P-293] | 10.5% | 0.0658 µM
6 | C[C@H](C#N)Nc1cc(-n2ncc3cc(C#N)cnc32)ncc1-n1cc([C@H]2CC[C@](O)(CCN3CCN(c4ccc([C@@]5(C)CCC(=O)NC5=O)nc4)CC3)CC2)nn1 (single isomer, unassigned) [P-294] | 76.0% | 1.23 µM
7 | C[C@H](C#N)Nc1cc(-n2ncc3cc(C#N)cnc32)ncc1-n1cc([C@H]2CC[C@](O)(CCN3CCN(c4ccc([C@@]5(C)CCC(=O)NC5=O)nc4)CC3)CC2)nn1 (single isomer, unassigned) [P-295] | 39.8% | 0.35 µM
8 | COc1cc([C@@]2(C)CCC(=O)NC2=O)ccc1N1CCN(CC[C@H]2CC[C@H](c3cn(-c4cnc(-n5ncc6cc(C#N)c(N)nc65)cc4N[C@H](C)C#N)nn3)CC2)C[C@@H]1C (single isomer, unassigned) [P-302] | 3.3% | 0.0105 µM
9 | COc1cc([C@@]2(C)CCC(=O)NC2=O)ccc1N1CCN(CC[C@H]2CC[C@H](c3cn(-c4cnc(-n5ncc6cc(C#N)c(N)nc65)cc4N[C@H](C)C#N)nn3)CC2)C[C@@H]1C (single isomer, unassigned) [P-303] | 90.1% | 0.111 µM
10 | COc1cc([C@@]2(C)CCC(=O)NC2=O)ccc1N1CCN(CC[C@H]2CC[C@H](c3cn(-c4cnc(-n5ncc6cc(C#N)c(N)nc65)cc4N[C@H](C)C#N)nn3)CC2)C[C@H]1C (single isomer, unassigned) [P-304] | 5.0% | 0.0119 µM
11 | COc1cc([C@@]2(C)CCC(=O)NC2=O)ccc1N1CCN(CC[C@H]2CC[C@H](c3cn(-c4cnc(-n5ncc6cc(C#N)c(N)nc65)cc4N[C@H](C)C#N)nn3)CC2)C[C@H]1C (single isomer, unassigned) [P-305] | 84.3% | 0.0002 µM
12 | C[C@H](C#N)Nc1cc(-n2ncc3cc(C#N)c(N)nc32)ncc1-n1cc([C@H]2CC[C@H](CCN3CCN(c4ccc([C@@]5(C)CCC(=O)NC5=O)nc4)CC3)CC2)nn1 (single isomer, unassigned) [P-306] | 1.5% | 0.0037 µM
13 | C[C@H](C#N)Nc1cc(-n2ncc3cc(C#N)c(N)nc32)ncc1-n1cc([C@H]2CC[C@H](CCN3CCN(c4ccc([C@@]5(C)CCC(=O)NC5=O)nc4)CC3)CC2)nn1 (single isomer, unassigned) [P-307] | 86.3% | 0.0066 µM
14 | C[C@H](C#N)Nc1cc(-n2ncc3cc(C#N)c(N)nc32)ncc1-n1cc([C@H]2CC[C@H](CCN3CCN(c4ccc([C@@]5(C)CCC(=O)NC5=O)nn4)CC3)CC2)nn1 (single isomer, unassigned) [P-308] | 3.5% | 0.0021 µM
15 | C[C@H](C#N)Nc1cc(-n2ncc3cc(C#N)c(N)nc32)ncc1-n1cc([C@H]2CC[C@H](CCN3CCN(c4ccc([C@@]5(C)CCC(=O)NC5=O)nn4)CC3)CC2)nn1 (single isomer, unassigned) [P-309] | 96.8% | 1 µM
16 | C[C@H](C#N)Nc1cc(-n2ncc3cc(C#N)cnc32)ncc1-n1cc([C@H]2CC[C@H](CCN3CC[C@H]4[C@@H]3CCN4c3ccc([C@@]4(C)CCC(=O)NC4=O)cn3)CC2)nn1 (single isomer, unassigned) [P-312] | 7.9% | 0.0132 µM
17 | C[C@H](C#N)Nc1cc(-n2ncc3cc(C#N)cnc32)ncc1-n1cc([C@H]2CC[C@H](CCN3CC[C@H]4[C@@H]3CCN4c3ccc([C@@]4(C)CCC(=O)NC4=O)cn3)CC2)nn1 (single isomer, unassigned) [P-313] | 44.9% | 0.244 µM
18 | C[C@H](C#N)Nc1cc(-n2ncc3cc(C#N)cnc32)ncc1-n1cc([C@H]2CC[C@H](CCN3CC[C@@H](c4ccc([C@@]5(C)CCC(=O)NC5=O)cc4)C(F)(F)C3)CC2)nn1 (single isomer, unassigned) [P-314] | 6.5% | 0.0218 µM
19 | C[C@H](C#N)Nc1cc(-n2ncc3cc(C#N)c(N)nc32)ncc1-n1cc([C@H]2CC[C@H](CCN3CCC(c4ccc([C@@]5(F)CCC(=O)NC5=O)cc4)CC3)CC2)nn1 (single isomer, unassigned) [P-317] | 2.0% | 0.0013 µM
20 | C[C@H](C#N)Nc1cc(-n2ncc3cc(C#N)c(N)nc32)ncc1-n1cc([C@H]2CC[C@H](CCN3CCC(c4ccc([C@@]5(F)CCC(=O)NC5=O)cc4)CC3)CC2)nn1 (single isomer, unassigned) [P-318] | 47.8% | 0.374 µM
21 | C[C@H](C#N)Nc1cc(-n2ncc3cc(C#N)c(N4C[C@H]5C[C@@H]4CO5)nc32)ncc1-n1cc([C@H]2CC[C@H](CCN3CCC(c4ccc([C@@]5(F)CCC(=O)NC5=O)cc4)CC3)CC2)nn1 (single isomer, unassigned) [P-319] | 87.9% | 1 µM
22 | C[C@H](C#N)Nc1cc(-n2ncc3cc(C#N)cnc32)ncc1-n1cc([C@H]2CC[C@H](CCN3C[C@@H]4CN(c5ccc(N6CCC(=O)NC6=O)cc5)C[C@@H]4C3)CC2)nn1 (single isomer, unassigned) [P-323] | 12.0% | 0.0967 µM
23 | C[C@H](C#N)Nc1cc(-n2ncc3cc(C#N)cnc32)ncc1-n1cc([C@H]2CC[C@H](CCN3CC[C@H]4[C@@H]3CCN4c3ccc(C4CCC(=O)NC4=O)cc3)CC2)nn1 (single isomer, unassigned) [P-325] | 1.6% | 0.0038 µM
24 | C[C@H](C#N)Nc1cc(-n2ncc3cc(C#N)cnc32)ncc1-n1cc([C@H]2CC[C@H](CCN3CC[C@H](c4ccc([C@@]5(F)CCC(=O)NC5=O)cc4)C[C@H]3C)CC2)nn1 (single isomer, unassigned) [P-326] | 0.3% | 0.004 µM
25 | C[C@H](C#N)Nc1cc(-n2ncc3cc(C#N)cnc32)ncc1-n1cc([C@H]2CC[C@H](CCN3CC[C@H]4[C@@H]3CCN4c3ccc(C4CCC(=O)NC4=O)cc3)CC2)nn1 (single isomer, unassigned) [P-327] | 2.2% | 0.0028 µM
